Source: patent US6358883B1, “Pesticidal and parasiticidal use of 1-aryl-1-(substituted thio, sulfinyl and sulfonyl)-2-nitroethane compounds” (American Cyanamid Company, priority 1998, dated 2002)

How the values were obtained:
Assay type in all cases: in vivo
[1] = system: C. elegans (Bristol strain); assay: Evaluation of test compounds against C. elegans (motility, 96-well plate); parameters: key: 9=complete kill in 4 hours; 8=complete kill in 24 hours; 7=markedly reduced motility in approximately 95% of worms in 24 hours; 0=normal motility, same as controls; conditions: motility at 4 and 24 hours
Summary of the method: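 Activity is a semi-quantitative visual score of adult and larval movement, read at 4 h and 24 h post-immersion at 20 °C after gentle tapping. Worms were suspended in Na buffer in wells where compound, dissolved in 80% acetone, had been evaporated.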

[2] = system: Tetranychus urticae (OP-resistant strain), 2-spotted spider mite (TSM); assay: 2-spotted spider mite (TSM) plant dip test; parameters: key: 0 = no effect; 1 = 10-25% kill; 2 = 26-35% kill; 3 = 36-45% kill; 4 = 46-55% kill; 5 = 56-65% kill; 6 = 66-75% kill; 7 = 76-85% kill; 8 = 86-99% kill; 9 = 100% kill; conditions: mortality after 2 days
Summary of the method: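 Mortality counted 2 days after a 3 s agitated dip of infested Sieva lima bean plants. Compound came from a 10,000 ppm stock in 35% aqueous acetone, with further dilution in water. Each primary leaf carried about 100 OP-resistant mites, allowed to settle ~2 h before dipping.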

[3] = system: Aphis gossypii, cotton aphid (CA); assay: Cotton aphid (CA) cotyledon dip test; parameters: key: 0 = no effect; 1 = 10-25% kill; 2 = 26-35% kill; 3 = 36-45% kill; 4 = 46-55% kill; 5 = 56-65% kill; 6 = 66-75% kill; 7 = 76-85% kill; 8 = 86-99% kill; 9 = 100% kill; conditions: mortality after 5 days
Summary of the method: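 Mortality was scored 5 days after dipping aphid-infested cotyledons, colonised overnight from a transfer leaf, into water dilutions of a 35% acetone/water compound solution.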

[4] = system: Spodoptera eridania, 2nd instar larvae, southern armyworm (SAW); assay: Southern armyworm (SAW) leaf dip test; parameters: key: 0 = no effect; 1 = 10-25% kill; 2 = 26-35% kill; 3 = 36-45% kill; 4 = 46-55% kill; 5 = 56-65% kill; 6 = 66-75% kill; 7 = 76-85% kill; 8 = 86-99% kill; 9 = 100% kill
Summary of the method: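 Ten 2nd instar caterpillars feed on a Sieva lima bean leaf that was dipped 3 seconds in test solution (stock 10,000 ppm in 35% acetone/water, water-diluted). Five days later, larvae are assessed for death, feeding reduction or abnormal molting.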

[5] = system: Spodoptera eridania, eggs-southern armyworm (SAW-Eggs); assay: Southern armyworm eggs (SAW-Eggs) treated diet test; parameters: key: 0 = no effect; 1 = 10-25% kill; 2 = 26-35% kill; 3 = 36-45% kill; 4 = 46-55% kill; 5 = 56-65% kill; 6 = 66-75% kill; 7 = 76-85% kill; 8 = 86-99% kill; 9 = 100% kill; conditions: mortality after 7 days
Summary of the method: (§1)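 Eggs of S. eridania or D. undecimpunctata howardi were set on artificial diet pretreated with test solution (10,000 ppm stock in 35% aqueous acetone, water dilutions) and dried. Wells were sealed with vented clear covers, and mortality was scored at day 7.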

[6] = system: Diabrotica virgifera virgifera Leconte, 2nd instar western corn rootworm (WCR); assay: Western corn rootworm (WCR) soil test; parameters: key: 0 = no effect; 1 = 10-25% kill; 2 = 26-35% kill; 3 = 36-45% kill; 4 = 46-55% kill; 5 = 56-65% kill; 6 = 66-75% kill; 7 = 76-85% kill; 8 = 86-99% kill; 9 = 100% kill
Summary of the method: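 Ten 2nd-instar rootworm larvae are placed in jars of moist soil with millet seed and talc treated with 1.25 mg active ingredient (roughly 50 kg/ha) from a 35% acetone-in-water solution. After 5 days mortality is scored, counting missing larvae as dead.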

[7] = system: Diabrotica undecimpunctata howardi, eggs-southern corn rootworm (SCR-Eggs); assay: Southern corn rootworm eggs (SCR-Eggs) treated diet test; parameters: key: 0 = no effect; 1 = 10-25% kill; 2 = 26-35% kill; 3 = 36-45% kill; 4 = 46-55% kill; 5 = 56-65% kill; 6 = 66-75% kill; 7 = 76-85% kill; 8 = 86-99% kill; 9 = 100% kill; conditions: mortality after 7 days
Summary of the method: as §1

[8] = system: M. incognita (Root Knot Nematode) larvae; assay: Evaluation of test compounds against M. incognita larvae in microtiter plate wells (movement score); conditions: larvae scored for movement after 20-24 hours; note: key: A score of '9' indicates inactive worms with a straight, sticklike morphology; A score of '8' indicates inactive worms with a limp, curled or curved morphology; A score of '7' indicates dead/paralyzed worms after 72 hours
Summary of the method: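 Scoring is by larval movement: dead or paralyzed worms count as positive, and a "7" means dead/paralyzed at 72 hours. Freshly hatched root-knot larvae (50-65 per well) in buffered S Medium were incubated with compounds under plate sealers for 20-24 h before the first read.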

Row | Structure (SMILES) | Rating Against C. elegans (150 ppm) [1] | TSM (300 ppm) rating [2] | CA (300 ppm) rating [3] | SAW (300 ppm) rating [4] | SAW Eggs (300 ppm) rating [5] | WCR (50 ppm) rating [6] | SCR Eggs (1000 ppm) rating [7] | M. incognita (150 ppm) score [8]
1 | CCCSC(C[N+](=O)[O-])c1ccc2ccccc2c1 (racemic) [Example 115] | 0 | 0 | 0 | 0 | 8 (8 = 86-99% kill) | 0 | 0 | 0
2 | O=[N+]([O-])CC(SCc1ccccc1)c1ccc2ccccc2c1 (racemic) [Example 116] | 0 | 0 | 0 | 0 | 0 | 0 | 0 | 0
3 | COC(=O)CSC(C[N+](=O)[O-])c1ccc(OC(F)(F)F)cc1 (racemic) [Example 117] | 8 | 0 | 0 | 0 | 0 | 0 | 0 | 0
4 | CCOC(=O)CSC(C[N+](=O)[O-])c1ccc(OC(F)(F)F)cc1 (racemic) [Example 118] | 8 | 0 | 0 | 0 | 9 (9 = 100% kill) | 0 | 0 | 0
5 | CCCOC(=O)CSC(C[N+](=O)[O-])c1ccc(OC(F)(F)F)cc1 (racemic) [Example 119] | 8 | 3 (3 = 36-45% kill) | 0 | 0 | 9 (9 = 100% kill) | 0 | 0 | 9
6 | CCCCOC(=O)CSC(C[N+](=O)[O-])c1ccc(OC(F)(F)F)cc1 (racemic) [Example 120] | 0 | 0 | 0 | 0 | 0 | 0 | 0 | 9
7 | O=C(CSC(C[N+](=O)[O-])c1ccc(OC(F)(F)F)cc1)OCc1ccccc1 (racemic) [Example 121] | 9 | 0 | 0 | 0 | 0 | 0 | 0 | 8
8 | CCCSC(C[N+](=O)[O-])c1ccc(OC(F)(F)F)cc1 (racemic) [Example 122] | 8 | 7 (7 = 76-85% kill) | 0 | 2 (2 = 26-35% kill) | 7 (7 = 76-85% kill) | 9 (9 = 100% kill) | 0 | 0
9 | COC(=O)CSC(C[N+](=O)[O-])c1ccccc1 (centres unmarked) [Example 4] | 9 | 0 | 5 (5 = 56-65% kill) | 0 | 0 | 4 (4 = 46-55% kill) | 0 | 9
10 | CCOC(=O)CSC(C[N+](=O)[O-])c1ccc(C)cc1 (centres unmarked) [Example 5] | 9 | 0 | 0 | 0 | 0 | 4 (4 = 46-55% kill) | 0 | 9
